How the values were obtained:
P-glycoprotein = target: T1, P-glycoprotein (Homo sapiens, UniProt P08183); experiment: P-glycoprotein substrate activity experiment (CC50 ratio MDCK-P-gp vs MDCK-WT); assay type: in vitro ADME; conditions: 72 hours, CellTiter-Glo (FIG. 4b)
T1 construct: host or cells: MDCKII-mdr1 (canine kidney MDCKII cells; MDCKII-wt as control)
Protocol: MDCKII-mdr1 and MDCKII-wt cells were purchased from the Netherlands Cancer Institute, NKI-AVL. The cells were cultivated in Dulbecco's modified essential medium (DMEM), supplemented with 10% FBS and 1% Penn-Strep, and used between passage 3-9. Cells were seeded at a density of 3×10^3 cells/well in 96-well tissue culture treated plates. After 4 hours to allow cells to attach, cells were treated with test compound in the presence or absence of the P-glycoprotein inhibitor Valspodar. The plates were incubated at 37° C., 5% CO2 for 72 hours and ATP was measured vialuminescence using CellTiter-Glo® reagent (Promega). (FIG. 4b)

advanced PDA = conditions: cited from earlier work
PDA tumors in KPC mice = experiment: KPC intervention/survival study; assay type: in vivo; conditions: KPC mice (FIGS. 9a, 9b)
Protocol: Tumor formation in KPC mice was monitored by weekly palpation until the detection of a mass. Upon positive palpation, the mass was monitored by twice weekly ultrasound until the tumor reached an enrollable size of 4-7 mm average diameter. Once enrollable, KPC mice were randomly enrolled into a treatment arm of the intervention study. Mice were treated with vehicle, Compound 1 (17 mg/kg, PO, b.i.w.), gemcitabine alone (100 mg/kg, IP, b.i.w.), or Compound 1+gemcitabine. Mice receiving Compound 1 also received gemcitabine vehicle (saline, IP, b.i.w.) at a volume (μL) of 50× body weight (g). Mice receiving gemcitabine also received Compound 1 vehicle (0.5% hydroxypropylmethylcellulose with 0.1% Tween80 (w/v), PO, b.i.w.) at a volume (μL) of 5.7× body weight (g). All drug and vehicle combinations were administered simultaneously.
Tumor ultrasonography and volume quantification were carried out as described in Sastra S A, Olive K P, Quantification of murine pancreatic tumors by high-resolution ultrasound, Methods Mol Biol 2013; 980:249-66. […]
To prepare samples for immunohistochemistry, tissues were first fixed overnight in 10% phosphate-buffered formalin and then stored in 70% ethanol for long-term storage. […] Next, antigen retrieval was carried out in an experimentally determined, antibody-specific antigen retrieval buffer (usually 10 mM citrate, pH 6.0 or 10 mM Tris, pH 10.0). […]

T1 sequence (P08183 whole entry): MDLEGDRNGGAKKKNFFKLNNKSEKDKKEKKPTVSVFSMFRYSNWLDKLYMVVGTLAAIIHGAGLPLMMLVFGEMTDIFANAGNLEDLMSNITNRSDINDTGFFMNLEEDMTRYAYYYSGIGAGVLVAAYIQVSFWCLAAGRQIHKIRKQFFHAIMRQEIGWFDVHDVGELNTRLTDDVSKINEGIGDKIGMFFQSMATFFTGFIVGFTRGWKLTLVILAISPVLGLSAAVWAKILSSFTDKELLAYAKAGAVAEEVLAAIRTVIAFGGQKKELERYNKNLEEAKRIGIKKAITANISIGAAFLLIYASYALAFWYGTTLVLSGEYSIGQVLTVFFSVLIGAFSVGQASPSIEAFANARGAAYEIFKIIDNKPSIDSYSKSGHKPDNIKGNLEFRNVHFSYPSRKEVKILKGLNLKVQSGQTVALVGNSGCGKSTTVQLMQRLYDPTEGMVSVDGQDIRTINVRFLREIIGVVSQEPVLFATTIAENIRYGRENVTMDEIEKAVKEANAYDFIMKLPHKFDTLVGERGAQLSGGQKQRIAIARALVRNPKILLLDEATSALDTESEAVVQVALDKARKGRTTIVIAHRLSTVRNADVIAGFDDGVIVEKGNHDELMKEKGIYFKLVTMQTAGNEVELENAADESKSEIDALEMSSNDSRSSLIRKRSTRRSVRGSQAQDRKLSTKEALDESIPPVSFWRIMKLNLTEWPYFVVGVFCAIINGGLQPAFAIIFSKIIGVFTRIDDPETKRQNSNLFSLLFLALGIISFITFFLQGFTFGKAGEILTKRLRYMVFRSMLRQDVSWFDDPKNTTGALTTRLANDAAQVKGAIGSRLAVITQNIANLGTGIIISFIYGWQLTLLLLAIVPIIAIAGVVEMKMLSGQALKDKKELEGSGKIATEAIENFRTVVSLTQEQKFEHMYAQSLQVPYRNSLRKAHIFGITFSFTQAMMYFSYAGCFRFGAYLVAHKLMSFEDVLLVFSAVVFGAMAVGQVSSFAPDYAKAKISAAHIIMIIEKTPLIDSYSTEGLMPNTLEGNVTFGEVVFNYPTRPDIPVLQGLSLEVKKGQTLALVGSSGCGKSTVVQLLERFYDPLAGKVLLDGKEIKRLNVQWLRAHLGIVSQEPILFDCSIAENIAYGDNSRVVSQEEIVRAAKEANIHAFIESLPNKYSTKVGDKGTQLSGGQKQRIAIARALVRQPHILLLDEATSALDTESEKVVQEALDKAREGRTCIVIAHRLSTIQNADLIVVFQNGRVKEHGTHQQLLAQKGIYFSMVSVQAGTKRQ

Structure (SMILES): Cc1nc2cc(F)c(F)cc2n1-c1cncc(Nc2ccc(C(F)(F)F)cc2)n1 [Compound 2, 6-(5,6-difluoro-2-methyl-1H-benzo[d]imidazol-1-yl)-N-(4-(trifluoromethyl)phenyl)pyrazin-2-amine, reference compound]
- PGP substrate activity (ratio of CC50 values MDCK-P-gp vs MDCK-WT) (P-glycoprotein): do not function as a PGP substrate

Structure (SMILES): C#Cc1cccc(Nc2ncnc3cc(OCCOC)c(OCCOC)cc23)c1 [Tarceva, erlotinib]
- additional survival benefit, average (advanced PDA; when combined with gemcitabine): 10 days

Structure (SMILES): CN(C)CCCN1c2ccccc2Sc2ccc(Cl)cc21 [chlorpromazine, reference compound]
- PGP substrate activity (ratio of CC50 values MDCK-P-gp vs MDCK-WT) (P-glycoprotein): do not function as a PGP substrate

Structure (SMILES): Nc1ccn([C@@H]2O[C@H](CO)[C@@H](O)C2(F)F)c(=O)n1 [gemcitabine, reference compound]
- apoptotic cell population in stained tumor sections (PDA tumors in KPC mice): induced apoptotic cell population
- extension of survival (advanced PDA; national standard-of-care therapy): modestly extends survival by a few weeks
